Laboratory results: US20170008888A1 (KYORIN PHARMACEUTICAL CO., LTD., priority 2014, published 2017)

Assays:
[1] = test system: TLR4 signaling in primary human umbilical vein endothelial cells; assay: Cytokine response to TLR4 agonism (LPS) in primary HUVEC (ELISA); format: cell-based; conditions: for IL-8: 22 hr; for IL-6 response, in words: summary of Table 24
Experimental: (§1) In this example, the following commercially available inhibitors were tested:
(§2) The results were compared with test compound 61.
(§3) Pooled primary human umbilical vein endothelial cells (HUVEC) were obtained from Lonza (Allendale, N.J.) and maintained in either complete EGM-2 defined media (Lonza) or Medium 200 supplemented with Low Serum Growth Supplement (Life Technologies, Grand Island, N.Y.). Cells at low passage (<5) were seeded at 4e5 cells/ml and allowed to adhere overnight at 37° C. in a humidified atmosphere at 5% CO2. Cells were pre-treated with test compounds for 1 h prior to TLR2 or TLR4 stimulation. To test for the effects of TLR2 agonism, the TLR2 agonist peptide Pam3CysK4 (Santa Cruz Biotechnology, Dallas, Tex.) was used at 10 μg/ml. PHC-SKKK (Enzo Life Sciences, Farmingdale, N.Y.) served as the negative control peptide. To test for the effects of TLR4 agonism, LPS from E. coli 0111:B4 (EMD Millipore, Billerica, Mass.) was used at 100 ng/ml. Cells were incubated for 22 hr, after which the supernatant was collected and analyzed for cytokine concentrations by ELISA (Life Technologies). Absorbance at 450 nm was read using the Wallac 1420 Victor^2 multilabel microplate reader (Perkin Elmer, Waltham, Mass.).

[2] = test system: TLR2 signaling in primary human umbilical vein endothelial cells; assay: Cytokine response to TLR2 agonism (Pam3CysK4) in primary HUVEC (ELISA); format: cell-based; conditions: for IL-8 response to TLR2 (Pam3CysK4) stimulation, in words: summary of Table 22
Description: It has been reported in the literature that that ERK5 mediates TLR2-dependent inflammatory signaling in several cell types including human umbilical vein endothelial cells (HUVEC). See Wilhelmsen et al., J Biol Chem. 2012; 287:26478-94. Wilhelmsen et al. further reported that MEK1 negatively regulates TLR2 signaling in HUVECs, with pharmacological inhibition of MEK1 augmenting (IL-6, G-CSF, GM-CSF) or not changing (IL-8) pro-inflammatory cytokine release in response to TLR2 stimulation.
as §1, §2, §3

[3] = test system: primary asthmatic human bronchial epithelial cells; assay: IL-17A- or IL-17F-mediated cytokine response by primary asthmatic human bronchial epithelial cells; format: cell-based; conditions: Epithelial cell, 0.25 μM, positive control, data not shown, read-out: inhibition of measured cytokines
Experimental: The virally immortalized, normal human bronchial epithelial cell line BEAS-2B was purchased from ATCC (Manassas, Va.). Primary bronchial epithelial cells isolated from a patient diagnosed with asthma were obtained from Lonza (Allendale, N.J.). Both cells were maintained in complete Bronchial Epithelial Cell Growth Medium (BEGM) (Lonza). Cells were seeded at 1e5 cells/ml and incubated at 37° C. in a humidified atmosphere at 5% CO2 overnight to adhere. Cells were pre-treated with test compounds (10 μM down by ⅕ in a 3- or 4-point serial dilution series) for 1 h at 37° C. in a humidified atmosphere at 5% CO2. DMSO at a final concentration of 0.1% served as the non-inhibited control. Budesonide (Selleck Chemicals, Houston, Tex.), a clinically approved glucocorticoid steroid for the treatment of asthma, was tested as a positive control at 0.25 μM. Cells were stimulated with 50 ng/ml of either human recombinant IL-17A or IL-17F (eBioscience, San Diego, Calif.), for 48 h. Supernatant was then collected and analyzed for cytokine concentrations using the Bio-Plex Pro Human Cytokine 17-Plex Panel (Bio-Rad Laboratories, Hercules, Calif.) according to the manufacturer's instructions. Magnetic beads were measured on the Bio-Plex MAGPIX multiplex reader instrument using the accompanying xPONENT 4.2 acquisition software (Bio-Rad Laboratories). Data were analyzed via the Bio-Plex Manager software v6.1 (Bio-Rad Laboratories). For the primary asthmatic bronchial epithelial cells, five (+IL-17F) to thirteen (+IL-17A) cytokines were in range of detection under the conditions used. […] Select cytokines were analyzed for comparison using the BEAS-2B cell line.
BLQ: cytokine levels were below limits of quantitation.

[4] = molecular target: T1, recombinant human ERK5 catalytic domain (Homo sapiens, UniProt Q13164); assay: Recombinant human ERK5 radiometric (HotSpot) assay; format: biochemical; conditions: 10 μM ATP, 20 μM myelin basic protein substrate; read-out: rhERK5 IC50
T1 construct: Recombinant human ERK5 catalytic domain radiometric assays; purchased Reaction Biology, Corp (Malvern, Pa.), which ran the assay as a service
T1 sequence (Q13164 55-347 limits assumed): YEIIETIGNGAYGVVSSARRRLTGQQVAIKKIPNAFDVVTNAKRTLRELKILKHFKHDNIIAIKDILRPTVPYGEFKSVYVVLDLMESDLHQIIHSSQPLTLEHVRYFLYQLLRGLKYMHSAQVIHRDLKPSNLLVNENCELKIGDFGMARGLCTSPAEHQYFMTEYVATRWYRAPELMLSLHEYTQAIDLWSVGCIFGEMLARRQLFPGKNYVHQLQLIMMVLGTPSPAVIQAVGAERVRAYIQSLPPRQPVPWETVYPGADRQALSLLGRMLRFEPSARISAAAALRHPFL
Experimental: In this example, potency of the compounds in recombinant human ERK5 was assayed.
Recombinant human ERK5 catalytic domain radiometric assays were performed by Reaction Biology, Corp (Malvern, Pa.). The HotSpot radiometric assay is based on conventional filter-binding assays (Nature Biotechnology (2011) 29: 1039-1045). Compounds were tested at 20 μM down by ⅓ in a 10 point serial dilution series. Briefly, [γ-33P]-ATP was used as the tracer along with 10 μM cold ATP to label ERK5 in the presence of 20 μM myelin basic protein substrate.

[5] = molecular target: T2, BRD4 bromodomain domain I [BRD4(1)] (Homo sapiens, UniProt O60885); assay: BRD4 bromodomain domain 1 inhibition assay (TR-FRET); format: binding
T2 construct: BRD4 bromodomain domain I [BRD4(1)]; purchased Cayman Chemicals
Procedure, shortened: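 0.5% DMSO, in triplicate, using Cayman BRD4(1) TR-FRET protocol with slight modification. 670/620 nm ratio normalized to 10 μM JQ1, with DMSO control set as 0% inhibition.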

human PBMCs = assay: Human PBMC TNF-α response to endotoxin (ELISA); format: cell-based; conditions: 0.1 μg/ml LPS 16 h, read-out: EC50 for the inhibition of the human PBMC TNF-α response to endotoxin, ave. ± S.D.
Procedure, shortened: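 PBMCs at 2e6 cells/ml in RPMI 1640 with 10% charcoal-dextran-treated FBS were pre-treated 1 h at 37 °C with compound (4-point 1:5 dilution from 10 μM). Stimulation with 0.1 μg/ml E. coli 0111:B4 LPS for 16 h; TNF-α measured by ELISA (A450) in 25-fold diluted supernatant.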

[6] = test system: collagen-induced arthritis mouse model; assay: Collagen-induced arthritis (CIA) mouse model: histopathology of tibiofemoral and tarsal/phalangeal joints; format: in vivo, mouse (DBA/1J)
[7] = test system: collagen-induced arthritis mouse model; assay: Collagen-induced arthritis (CIA) mouse model: in-life disease score, paw thickness; format: in vivo, mouse (DBA/1J); conditions: for change in group average disease score - mean, Day versus Day 21 (start of treatment): Tofacitinib 15 mg/kg PO BID from D21
[8] = 10 μM inhibitor, +100 ng/ml LPS
[9] = 10 μM inhibitor, No Stimulation
[10] = 5 μM inhibitor, +10 μg/ml PHC-SKKK (negative control peptide), 22 hr
[11] = 5 μM inhibitor, +10 μg/ml Pam3CysK4, 22 hr
[12] = Group 2 (n=10): Tofacitinib 15 mg/kg PO BID D21-D42
[13] = Group 2: Tofacitinib 15 mg/kg PO BID D21-D42

O=C(NC[C@H](O)CO)c1ccncc1Nc1ccc(I)cc1F [AS703026]
IL-8 ([1]; 5 μM inhibitor, +100 ng/ml LPS): 1970 ± 126 pg/mL
G-CSF [1, 8]: 90 ± 13 pg/mL
IL-6 [1, 8]: 1368 ± 169 pg/mL
G-CSF [1, 9]: 30 ± 1 pg/mL
IL-6 [1, 9]: 529 ± 20 pg/mL
IL-6 response, in words [1]: Cytokine augmentation was observed
IL-8 [2, 10]: 0 ± 23 pg/mL
IL-8 [2, 11]: 732 ± 36 pg/mL
IL-8 response to TLR2 (Pam3CysK4) stimulation, in words [2]: moderate IL-8 augmentation

CCCC1O[C@@H]2C[C@H]3[C@@H]4CCC5=CC(=O)C=C[C@]5(C)[C@H]4[C@@H](O)C[C@]3(C)[C@]2(C(=O)CO)O1 (stereo partly drawn) [Budesonide, reference compound]
inhibition at […] [3]: < 50%

CN1C(=O)c2cccc(Cl)c2N(C)c2cc(N[C@H]3CC[C@H](O)CC3)ncc21 [Compound T120]
IC50 [4]: > 0.2 µM
IC50 [5]: > 5 µM
EC50 (human PBMCs): 2.39 ± 2.11 µM

COc1cccc2c1N(C)c1cc(N[C@H]3CC[C@H](O)CC3)ncc1N(C)C2=O [Compound T122]
IC50 [4]: 0.05 to 0.2 µM
IC50 [5]: > 5 µM
EC50 (human PBMCs): 3.49 ± 3 µM

CCOc1cc(C(=O)N2CCN(C3CCN(C)CC3)CC2)ccc1Nc1cc2c(cn1)N(C)C(=O)c1c(F)cccc1N2C [Compound T124]
IC50 [4]: 0.02 to 0.05 µM
IC50 [5]: < 2 µM
EC50 (human PBMCs): 0.31 ± 0.22 µM

CCOc1cc(C(=O)N2CCN(C3CCN(C)CC3)CC2)ccc1Nc1cc2c(cn1)N(C)C(=O)c1cccc(F)c1N2C [Compound T125]
IC50 [4]: 0.05 to 0.2 µM
IC50 [5]: 2 to 5 µM
EC50 (human PBMCs): 0.79 ± 0.2 µM

CCOc1cc(C(=O)N2CCN(C3CCN(C)CC3)CC2)ccc1Nc1cc2c(cn1)N(C)C(=O)c1cccc(Cl)c1N2C [Compound T126]
IC50 [4]: 0.05 to 0.2 µM
IC50 [5]: > 5 µM
EC50 (human PBMCs): 0.97 ± 0.83 µM

CN1C(=O)c2ccccc2N(C)c2cc(N[C@H]3CC[C@H](NS(N)(=O)=O)CC3)ncc21 [Compound T128]
IC50 [4]: 0.05 to 0.2 µM
IC50 [5]: 2 to 5 µM
EC50 (human PBMCs): 2.51 ± 1.47 µM

CN1C(=O)c2ccccc2N(C)c2cc(N[C@H]3CC[C@H](NS(=O)(=O)C4CC4)CC3)ncc21 [Compound T129]
IC50 [4]: 0.05 to 0.2 µM
IC50 [5]: 2 to 5 µM
EC50 (human PBMCs): 1.79 ± 1.44 µM

CN1C(=O)c2ccccc2N(C)c2cc(N[C@H]3CC[C@H](N4CCCS4(=O)=O)CC3)ncc21 [Compound T136]
IC50 [4]: 0.05 to 0.2 µM
IC50 [5]: > 5 µM
EC50 (human PBMCs): 2.03 ± 1.91 µM

C[C@H]1C[C@H](Nc2cc3c(cn2)N(C)C(=O)c2ccccc2N3C)CC[C@H]1O [Compound T137]
IC50 [4]: 0.05 to 0.2 µM
IC50 [5]: > 5 µM
EC50 (human PBMCs): 1.11 ± 0.99 µM

C[S+]([O-])c1ccc(-c2nc(-c3ccncc3)c(-c3ccc(F)cc3)[nH]2)cc1 (stereo not drawn) [SB203580]
G-CSF [1, 8]: 318 ± 33 pg/mL
IL-6 [1, 8]: 112 ± 10 pg/mL
IL-8 [1, 8]: 1526 ± 54 pg/mL
G-CSF [1, 9]: 7 ± 9 pg/mL
IL-6 [1, 9]: 18 ± 5 pg/mL
IL-6 response, in words [1]: reduced
IL-8 ([2]; 10 μM inhibitor, +10 μg/ml PHC-SKKK (negative control peptide), 22 hr): 54 ± 12 pg/mL
IL-8 ([2]; 10 μM inhibitor, +10 μg/ml Pam3CysK4, 22 hr): 450 ± 23 pg/mL
IL-8 response to TLR2 (Pam3CysK4) stimulation, in words [2]: reduced the IL-8 response

C[C@@H]1CCN(C(=O)CC#N)C[C@@H]1N(C)c1ncnc2[nH]ccc12 [Tofacitinib, reference compound]
histopathology of hind-limb joints (knee, paw/tarsal), in words ([6]; Day 42, H&E): less effective at mitigating cartilage and periosteal erosion at the knee and ulceration and synovial hyperplasia than 46
Animals with normal tarsal joints (% of total n in group) [6, 12]: 40%
Number of animals with normal tarsal joints [6, 12]: 4
Tibiofemoral joint score: cartilage erosion/ulceration [6, 13]: 16.3
Tibiofemoral joint score: inflammation [6, 13]: 16.3
Tibiofemoral joint score: periosteal proliferation/erosion [6, 13]: 7.8
Tibiofemoral joint score: synovial hyperplasia [6, 13]: 5.0
change in group average disease score - mean, Day versus Day 21 (start of treatment) ([7]; Day 21): 0.0
change in group average disease score - mean, Day versus Day 21 (start of treatment) ([7]; Day 24): 0.3
change in group average disease score - mean, Day versus Day 21 (start of treatment) ([7]; Day 26): 0.9
change in group average disease score - mean, Day versus Day 21 (start of treatment) ([7]; Day 28): 1.8
change in group average disease score - mean, Day versus Day 21 (start of treatment) ([7]; Day 31): 2.3
change in group average disease score - mean, Day versus Day 21 (start of treatment) ([7]; Day 33): 2.6
change in group average disease score - mean, Day versus Day 21 (start of treatment) ([7]; Day 35): 2.7
change in group average disease score - mean, Day versus Day 21 (start of treatment) ([7]; Day 37): 2.2
change in group average disease score - mean, Day versus Day 21 (start of treatment) ([7]; Day 39): 2.5
percent reduction in overall disease and total paw scores ([7]; treatment Day 21-42, Tofacitinib 15 mg/kg BID PO, doses in Table 28): about 55%

CCOc1cc(N2CCC(O)CC2)ccc1Nc1ncc2c(n1)N(C)c1ccccc1C(=O)N2C [XMD8-92]
G-CSF ([1]; 5 μM inhibitor, +100 ng/ml LPS): 111 ± 6 pg/mL
IL-6 ([1]; 5 μM inhibitor, +100 ng/ml LPS): 170 ± 21 pg/mL
IL-8 ([1]; 5 μM inhibitor, +100 ng/ml LPS): 1249 ± 42 pg/mL
G-CSF ([1]; 5 μM inhibitor, No Stimulation): 0 ± 1 pg/mL
IL-6 ([1]; 5 μM inhibitor, No Stimulation): 20 ± 1 pg/mL
IL-6 response, in words [1]: reduced
IL-8 [2, 10]: 0 ± 25 pg/mL
IL-8 [2, 11]: 199 ± 11 pg/mL
IL-8 response to TLR2 (Pam3CysK4) stimulation, in words [2]: reduced the IL-8 response
